Experimental data published in PubChem BioAssay (NCI).
Where “and” joins values, the source holds several entries; their conditions need not be identical. Equal entries are not always repeated.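 1) Cells in 96-well plates. 2) Compound, 48 h, 5 concentrations. 3) Linear interpolation between surrounding doses. 4) Unreached endpoint = highest concentration. GI50 is the concentration that inhibits growth by half. TGI marks complete inhibition of growth.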

Columns and labels:
Test in all cases: NCI anticancer screen, dose series, 48 h
HCT-15 colon = system: HCT-15 colon
SF-268 CNS = system: SF-268 CNS
RXF 393 renal = system: RXF 393 renal
OVCAR-3 ovarian = system: OVCAR-3 ovarian
SW-620 colon = system: SW-620 colon
HCC-2998 colon = system: HCC-2998 colon
UO-31 renal = system: UO-31 renal
OVCAR-4 ovarian = system: OVCAR-4 ovarian
SN12C renal = system: SN12C renal
NCI-H23 lung = system: NCI-H23 lung

SMILES | GI50 (HCT-15 colon) [µM] | TGI (HCT-15 colon) | GI50 (SF-268 CNS) [µM] | TGI (SF-268 CNS) | GI50 (RXF 393 renal) | TGI (RXF 393 renal) | GI50 (OVCAR-3 ovarian) | TGI (OVCAR-3 ovarian) | GI50 (SW-620 colon) | TGI (SW-620 colon) | GI50 (HCC-2998 colon) [µM] | TGI (HCC-2998 colon) | GI50 (UO-31 renal) [µM] | TGI (UO-31 renal) | GI50 (OVCAR-4 ovarian) [µM] | TGI (OVCAR-4 ovarian) | GI50 (SN12C renal) [µM] | TGI (SN12C renal) | GI50 (NCI-H23 lung) [µM] | TGI (NCI-H23 lung)
O=C(CCCCCCSc1nc(-c2ccccc2)cc(-c2ccc(Cl)cc2)n1)NO | 2.27 | 14 µM | 2.44 | 6.75 µM | 1.57 µM | 3.89 µM | 1.96 µM | 6.86 µM | 1.48 µM | 10.4 µM | 2.44 | 7.19 µM | 0.905 | 2.65 µM | 2.52 | 13.5 µM | 2.14 | 6.35 µM | 1.88 | 5.13 µM
Cc1ccc(CNc2c3ccccc3nc3ccccc23)cc1 | 1.8 | 4.42 µM | 2.98 | 11.3 µM | 1.68 µM | 3.41 µM | 2.42 µM | 6.22 µM | 1.62 µM | 5.32 µM | 1.72 | 3.74 µM | 1.12 | 3.17 µM | 1.54 | 5.36 µM | 2.6 | 11.1 µM | 1.59 | 4.04 µM
N#Cc1c(-c2nc3ccccc3s2)c(=O)oc2cc(O)ccc12 |  | > 100 µM |  | > 100 µM |  | > 100 µM |  | > 100 µM |  | > 100 µM |  | > 100 µM |  | 74.9 µM |  | > 100 µM |  | > 100 µM |  | > 100 µM
COc1ccc(C(=O)/C(Br)=C/C(=O)O)cc1 | 10.6 | 101 µM and 94.4 µM | 27.3 | 202 µM and 225 µM | 6.8 µM and 15.1 µM | 19.4 µM and 50 µM | 35.6 µM and 22.7 µM | 133 µM and 116 µM | 19.2 µM and 24.7 µM | 63.6 µM and 145 µM | 26.6 | 76.3 µM and 51.8 µM | 20.3 | 77.7 µM and 103 µM |  | 125 µM and 120 µM | 53.7 | 228 µM and 183 µM | 21.3 | 112 µM and 205 µM
CS(=O)(=O)CCNCc1nc(-c2ccc3ncnc(Nc4ccc(F)c(Cl)c4)c3c2)cs1 | 17.5 | > 25 µM | > 17.9 | > 25 µM | 9.75 µM | > 25 µM | 11.1 µM | > 25 µM | > 25 µM | > 25 µM | > 25 | > 25 µM | 6.81 | > 25 µM | 14.7 | > 25 µM | 15.6 | > 25 µM | > 25 | > 25 µM
COc1cc2c(cc1OC)C(=O)/C(=C/c1cccc(OCC(=O)c3ccccc3)c1)C2 | 9.3 | > 100 µM | 15.3 | 63.3 µM | 35.4 µM | > 100 µM | 17.1 µM | > 100 µM | 38.3 µM | > 100 µM | 73.1 | > 100 µM | 6.93 | > 100 µM | 30.4 | > 100 µM | 23.8 | > 100 µM | 22.3 | > 100 µM
O=C1NCc2ccc3c(-c4cccc(Cl)c4)c[nH]c3c21 | 0.163 | > 50 µM | 0.5 | > 50 µM | 0.296 µM | > 15.4 µM | 0.18 µM | > 50 µM | 0.195 µM | > 50 µM | 0.734 | > 22.9 µM | 0.465 | > 23.5 µM | 1.95 | > 50 µM | 0.438 | > 50 µM | 0.484 | > 50 µM
COc1cc(C2C=C(c3cccc(NC(C)=O)c3)Nc3ncnn32)cc(OC)c1OC (centres undefined) | 2.02 | > 100 µM | 0.675 | > 100 µM | 0.576 µM | > 100 µM | 0.236 µM | 0.645 µM | 0.313 µM | > 100 µM | 0.0566 | 0.489 µM | 33.5 | > 100 µM | 5.8 | > 100 µM | 0.489 | > 100 µM | 0.468 | > 100 µM
CCOC(=O)c1ccc(NC(=O)N2CC(C)OC(C)C2)cc1 (centres undefined) | > 100 | > 100 µM | > 100 | > 100 µM | > 100 µM | > 100 µM | > 100 µM | > 100 µM | > 100 µM | > 100 µM | > 100 | > 100 µM | > 100 | > 100 µM | > 100 | > 100 µM | > 100 | > 100 µM | > 100 | > 100 µM
CNC(=O)c1cc(OC2CCC(NC(=O)Nc3ccc(Cl)c(C(F)(F)F)c3)CC2)ccn1 (centres undefined) | 6.17 | 23.6 µM | 13.7 | 52 µM | 10.5 µM | 24.5 µM | 10.7 µM | 32 µM | 11.5 µM | 31.2 µM | 7 | 19.2 µM | 7.09 | 21.7 µM | 4.53 | 49.6 µM | 6.2 | 22.1 µM | 4.47 | 20.4 µM
N#CCC(=O)Nc1cccc(C(F)(F)F)c1 |  | > 100 µM |  | > 100 µM |  | > 100 µM |  | > 100 µM |  | > 100 µM |  | > 100 µM |  | > 100 µM |  | > 100 µM |  | > 100 µM |  | > 100 µM
COC(=O)C1CC2(CC3=C1CCCC3)OCCO2 (centres undefined) |  | > 100 µM |  | > 100 µM |  | > 100 µM |  | > 100 µM |  | > 100 µM |  | > 100 µM |  | > 100 µM |  | > 100 µM |  | > 100 µM |  | > 100 µM
COc1ccc(-c2nn3ncccc3c2-c2ccnc(Nc3ccc(Cl)c(C(F)(F)F)c3)n2)cc1 | 9.97 | > 25 µM | 11.6 | > 25 µM | 5.66 µM | > 24 µM | 10.5 µM | > 25 µM | 14.4 µM | > 25 µM | 6.42 | 20.8 µM | 6.32 | > 25 µM | 8.66 | > 25 µM | 9.54 | > 25 µM | 10.6 | > 25 µM
CNC(P(=O)([O-])[O-])P(=O)([O-])[O-].N.N.[Pt+2] | > 100 | > 100 µM | > 100 | > 100 µM | > 100 µM | > 100 µM | > 100 µM | > 100 µM | > 100 µM | > 100 µM | > 100 | > 100 µM | > 100 | > 100 µM | > 100 | > 100 µM | > 100 | > 100 µM | > 100 | > 100 µM
